From PubChem BioAssay AID1259408 (Genetic Toxicology Data Bank (GENE-TOX), 2018)
Active and inactive are the calls of the source. The rule behind the calls is not given here.

System: GENE-TOX genotoxicity assays, various organisms and cells
Assay: GENE-TOX mutagenicity studies
Details: for call: Assay Type: In vivo carcinogenicity studies
[1] = Species/Cell Type: Salmonella typhimurium (one or more of the five standard strains: TA98, TA100, TA1535, TA1537, and TA1538), Assay Type: Histidine reverse gene mutation, Ames assay, Assay Code: SAL+, Evaluation Type: Evaluation A (Pre-1980)
[2] = Species/Cell Type: Human diploid fibroblasts, Assay Type: Unscheduled DNA synthesis (UDS) in vitro, DNA effects, Assay Code: UDH+, Evaluation Type: Evaluation A (Pre-1980)
[3] = Species/Cell Type: Human, Assay Type: Sister-chromatid exchange (SCE) in vitro, Assay Code: SC1T, Evaluation Type: Evaluation B (Post-1980)
[4] = Species/Cell Type: Nonhuman, Assay Code: CCG+, Evaluation Type: Evaluation A (Pre-1980)
[5] = Species/Cell Type: Escherichia coli WP2, Assay Type: Tryptophan reverse gene mutation, Assay Code: WP2+, Evaluation Type: Evaluation A (Pre-1980)
[6] = Species/Cell Type: Human, Assay Type: Sister-chromatid exchange (SCE) in vitro, Assay Code: SC1+D, Dose Response: With dose response, Evaluation Type: Evaluation B (Post-1980)
[7] = Species/Cell Type: Drosophila melanogaster, Assay Type: Sex-linked recessive lethal gene mutation, Assay Code: SRLT, Evaluation Type: Evaluation A (Pre-1980)
[8] = Species/Cell Type: Salmonella typhimurium (one or more of the five standard strains: TA98, TA100, TA1535, TA1537, and TA1538), Assay Type: Histidine reverse gene mutation, Ames assay, Assay Code: SAL-, Evaluation Type: Evaluation A (Pre-1980)

In the case of `O=C1c2c(O)ccc(Cl)c2C(=O)c2c(O)ccc(Cl)c21`, the mutagenic call [1] was “active; positive”.
`CCCCCCCCCC(=O)OCCCN1CCN(C2Cc3ccccc3Sc3ccc(SC)cc32)CC1` (stereo not given) was tested, and the mutagenic call (Species/Cell Type: Rodents, Sex: Male, Assay Type: Dominant lethal test, Assay Code: DLT-, Evaluation Type: Evaluation A (Pre-1980)) was “inactive; negative”.
In the case of `C#CC(OC(=O)NC1CCCCC1)(c1ccccc1)c1ccc(C)c(C)c1` (stereo not given), the mutagenic call [2] was “active; positive” and the mutagenic call [1] was “active; positive”.
In the case of `O[C@H]1c2ccc3cc4ccccc4cc3c2[C@@H]2OC2[C@@H]1O` (stereo not given in full), the mutagenic call (Species/Cell Type: Chinese hamster lung (V79) cells, Assay Type: Forward gene mutation at the HPRT or ouabain locus, Assay Code: V79+, Evaluation Type: Evaluation A (Pre-1980)) was “active; positive”.
`CC[C@H](C)[C@H](NC(=O)[C@@H](NC(=O)N[C@@H](Cc1ccccc1)C(=O)O)C1CCN=C(N)N1)C(=O)N[C@H](C=O)Cc1ccccc1` (stereo not given in full) (tested in a mixture with another compound) was tested, and the mutagenic call [3] was “no conclusion”.
`Nc1ncnc2c1ncn2[C@@H]1O[C@H](CO[C@H]2[C@H](O)[C@@H](O)[C@@H](O[C@@H](C(=O)O)[C@H](O)[C@H](OP(=O)(O)O)[C@H](O)C(=O)O)O[C@@H]2CO)[C@@H](O)[C@H]1O` was tested, and the mutagenic call (Species/Cell Type: Plant, Assay Type: Micronucleus test, chromosome aberrations, Assay Code: MNP+, Evaluation Type: Evaluation A (Pre-1980)) was “active; positive”.
`ClCC(Br)CBr` (stereo not given) was tested, and the mutagenic call (Species/Cell Type: Escherichia coli polA (W3119 vs P3478), Assay Type: Rec-assay, DNA effects (bacterial DNA repair), Assay Code: RE1+, Evaluation Type: Evaluation A (Pre-1980)) was “active; positive”, the mutagenic call (Species/Cell Type: Human, Sex: Male, Assay Type: Sperm morphology, Assay Code: SPH+, Evaluation Type: Evaluation A (Pre-1980)) was “active; positive” and the call [4] was “active; positive”. For the same compound, the mutagenic call (Species/Cell Type: Nonhuman, Assay Type: Sister-chromatid exchange (SCE) in vitro, Assay Code: SC2+D, Dose Response: With dose response, Evaluation Type: Evaluation B (Post-1980)) was “active; positive”, the mutagenic call [1] was “active; positive” and the mutagenic call (Species/Cell Type: Salmonella typhimurium, Assay Type: Forward and reverse gene mutation, body fluid assay, Assay Code: BFU-, Evaluation Type: Evaluation A (Pre-1980)) was “inactive; negative”.
With `CN1CCN(c2ccc3nc(-c4ccc5nc(-c6ccc(O)cc6)[nH]c5c4)[nH]c3c2)CC1` the mutagenic call (Species/Cell Type: Nonhuman, Assay Type: Sister-chromatid exchange (SCE) in vitro, Assay Code: SC2+D, Dose Response: With dose response, Evaluation Type: Evaluation A (Pre-1980)) was “active; positive”, the mutagenic call (Species/Cell Type: Nonhuman, Assay Type: Sister-chromatid exchange (SCE) in vivo, Assay Code: SC3-, Evaluation Type: Evaluation A (Pre-1980)) was “inactive; negative” and the mutagenic call (Species/Cell Type: Nonhuman, Assay Type: Sister-chromatid exchange (SCE) in vivo, Assay Code: SC3T, Evaluation Type: Evaluation B (Post-1980)) was “no conclusion”.
With `O=C1CN(/N=C/C=C/c2ccc([N+](=O)[O-])o2)C(=O)N1` the mutagenic call [5] was “active; positive” and the mutagenic call (Species/Cell Type: Escherichia coli WP2 UVRA, Assay Type: Tryptophan reverse gene mutation, Assay Code: WPU-, Evaluation Type: Evaluation A (Pre-1980)) was “inactive; negative”.
For `[Cl][Sb]([Cl])([Cl])([Cl])[Cl]`, the mutagenic call (Species/Cell Type: Bacillus subtilis (H17 vs M45), Assay Type: Rec-assay, spot test, DNA effects (bacterial DNA repair), Assay Code: REW+, Evaluation Type: Evaluation A (Pre-1980)) was “active; positive”.
`Oc1ccc2c(cc3ccc4cccc5ccc2c3c45)c1O` was tested, and the mutagenic call (Species/Cell Type: Mouse prostate cells, Assay Type: Cell transformation, Assay Code: CTM+D, Dose Response: With dose response, Evaluation Type: Evaluation A (Pre-1980)) was “active; positive” and the mutagenic call (Species/Cell Type: Syrian hamster embryo (SHE) cells, Assay Type: Cell transformation, clonal assay, Assay Code: CTC+, Evaluation Type: Evaluation A (Pre-1980)) was “active; positive”.
`OCc1ccn2c1[C@H](O)CC2` was tested, and the mutagenic call (Species/Cell Type: Human lymphocytes, Assay Type: Sister-chromatid exchange (SCE) in vitro, Assay Code: SCL+D, Dose Response: With dose response, Evaluation Type: Evaluation B (Post-1980)) was “active; positive” and the mutagenic call [6] was “active; positive”.
With `CN=NNc1ccccc1` the mutagenic call (Species/Cell Type: Neurospora crassa, Assay Type: Forward gene mutation, Assay Code: NEF+, Evaluation Type: Evaluation A (Pre-1980)) was “active; positive”.
With `CCCCc1nc(Cl)c(CO)n1Cc1ccc(-c2ccccc2-c2nnn[nH]2)cc1` the mutagenic call [7] was “no conclusion” and the mutagenic call (Species/Cell Type: Drosophila melanogaster, Sex: Male, Assay Type: Heritable translocation test, chromosome aberrations, Assay Code: DHTT, Evaluation Type: Evaluation A (Pre-1980)) was “no conclusion”.
`O=[Se](=O)(O)O` was tested, and the mutagenic call (Species/Cell Type: Bacillus subtilis (H17 vs M45), Assay Type: Rec-assay, spot test, DNA effects (bacterial DNA repair), Assay Code: REW-, Evaluation Type: Evaluation A (Pre-1980)) was “inactive; negative”, the mutagenic call [2] was “active; positive” and the mutagenic call (Species/Cell Type: Human lymphocytes, Assay Type: Sister-chromatid exchange (SCE) in vitro, Assay Code: SCLT, Evaluation Type: Evaluation B (Post-1980)) was “no conclusion”. For the same compound, the mutagenic call [3] was “no conclusion”, the mutagenic call (Species/Cell Type: Nonhuman, Assay Type: Sister-chromatid exchange (SCE) in vitro, Assay Code: SC2+*, Activation: With metabolic activation, Evaluation Type: Evaluation B (Post-1980)) was “active; positive” and the mutagenic call [1] was “active; positive”.
`C/C=C(\C(=C/C)c1ccc(O)cc1)c1ccc(O)cc1` was tested, and the mutagenic call [6] was “active; positive”.
With `Nc1cc([N+](=O)[O-])ccc1C(=O)O` the call (Species/Cell Type: Nonhuman, Assay Code: CCG-, Evaluation Type: Evaluation A (Pre-1980)) was “inactive; negative”.
In the case of `CNC(=O)Oc1cccc2c1OC(C)(C)C2`, the mutagenic call (Species/Cell Type: Bacillus subtilis (H17 vs M45), Assay Type: Rec-assay, spot test, DNA effects (bacterial DNA repair), Assay Code: REWT, Evaluation Type: Evaluation A (Pre-1980)) was “no conclusion”, the mutagenic call (Species/Cell Type: Drosophila melanogaster, Assay Type: Sex-linked recessive lethal gene mutation, Assay Code: SRL-, Evaluation Type: Evaluation A (Pre-1980)) was “inactive; negative” and the mutagenic call (Species/Cell Type: Escherichia coli WP2 UVRA, Assay Type: Tryptophan reverse gene mutation, Assay Code: WPU-*, Activation: With metabolic activation, Evaluation Type: Evaluation A (Pre-1980)) was “inactive; negative”. For the same compound, the mutagenic call (Species/Cell Type: Escherichia coli polA (W3119 vs P3478), Assay Type: Rec-assay, DNA effects (bacterial DNA repair), Assay Code: RE1T, Evaluation Type: Evaluation A (Pre-1980)) was “no conclusion”, the mutagenic call (Species/Cell Type: Hordeum vulgare (barley), Assay Type: Chromosome aberrations, Assay Code: HOC+D, Dose Response: With dose response, Evaluation Type: Evaluation A (Pre-1980)) was “active; positive” and the mutagenic call (Species/Cell Type: Human diploid fibroblasts, Assay Type: Unscheduled DNA synthesis (UDS) in vitro, DNA effects, Assay Code: UDH-, Evaluation Type: Evaluation A (Pre-1980)) was “inactive; negative”. For the same compound, the mutagenic call (Species/Cell Type: Saccharomyces cerevisiae, Assay Type: Mitotic recombination or gene conversion, Assay Code: YEH-, Evaluation Type: Evaluation A (Pre-1980)) was “inactive; negative” and the mutagenic call [8] was “inactive; negative”.
In the case of `F/C(=C(/F)C(F)(F)F)C(F)(F)F`, the mutagenic call [7] was “no conclusion”.
With `O=C(O)c1c(Br)c(Br)c(Br)c(Br)c1C(=O)O` the mutagenic call [8] was “inactive; negative”.
`CCN(CC)N=Nc1ccccc1` was tested, and the mutagenic call (Species/Cell Type: Mammalian polychromatic erythrocytes, Assay Type: Micronucleus test, chromosome aberrations, Assay Code: MNT+, Evaluation Type: Evaluation A (Pre-1980)) was “active; positive” and the call (Species/Cell Type: Nonhuman, Assay Code: CCG+L, Evaluation Type: Evaluation A (Pre-1980)) was “active; positive”.
For `O=C1c2cccc(O)c2C(=O)c2c(O[C@@H]3O[C@H](CO)[C@@H](O)[C@H](O)[C@H]3O)cccc21`, the mutagenic call (Species/Cell Type: Salmonella typhimurium (one or more of the five standard strains: TA98, TA100, TA1535, TA1537, and TA1538), Assay Type: Histidine reverse gene mutation, Ames assay, Assay Code: SAL+*, Activation: With metabolic activation, Evaluation Type: Evaluation A (Pre-1980)) was “active; positive”.
For `O=C1OC(CN2CCOCC2)CN1/N=C/c1ccc([N+](=O)[O-])o1` (stereo not given), the mutagenic call [5] was “active; positive”, the mutagenic call (Species/Cell Type: Escherichia coli WP2 UVRA, Assay Type: Tryptophan reverse gene mutation, Assay Code: WPU+, Evaluation Type: Evaluation A (Pre-1980)) was “active; positive” and the mutagenic call (Species/Cell Type: Escherichia coli WP2 UVRA, Assay Type: Tryptophan reverse gene mutation, Assay Code: WPU+D, Dose Response: With dose response, Evaluation Type: Evaluation A (Pre-1980)) was “active; positive”. For the same compound, the call [4] was “active; positive”.
In the case of `CCCCCCCCCCCCCC(=O)O[C@@H]1[C@@H](C)[C@@]2(O)[C@@H](C=C(CO)C[C@]3(OC)C(=O)C(C)=C[C@@H]23)[C@@H]2C(C)(C)[C@]12OC(C)=O`, the mutagenic call (Species/Cell Type: Nonhuman, Assay Type: Sister-chromatid exchange (SCE) in vitro, Assay Code: SC2-, Evaluation Type: Evaluation A (Pre-1980)) was “inactive; negative” and the mutagenic call (Species/Cell Type: Nonhuman, Assay Type: Sister-chromatid exchange (SCE) in vitro, Assay Code: SC2T, Evaluation Type: Evaluation B (Post-1980)) was “no conclusion”.
With `Nc1ccc(-c2ccc(F)cc2)cc1` the mutagenic call (Species/Cell Type: Mouse embryo (AKR/ME) cells, Assay Type: Cell transformation, Assay Code: CTK+, Evaluation Type: Evaluation A (Pre-1980)) was “active; positive”.
In the case of `OC/C=C/c1ccc2c(c1)OCO2`, the mutagenic call (Species/Cell Type: Salmonella typhimurium (one or more of the five standard strains: TA98, TA100, TA1535, TA1537, and TA1538), Assay Type: Histidine reverse gene mutation, Ames assay, Assay Code: SALT, Evaluation Type: Evaluation A (Pre-1980)) was “no conclusion”.
